Data on 19 compounds can be found in patent US10781204B2, “TYK2 inhibitors and uses thereof” (Nimbus Lakshmi, Inc., priority 2015, dated 2020).

The target in one assay is TYK2 (Homo sapiens (Human), UniProt P29597). In words: Tyk2 radioactive kinase assay. Type of assay: biochemical. The following applies: ATP 10 μM. In short, it runs like this: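 Recombinant human TYK2 (Invitrogen) was mixed with 20 μM peptide substrate in a buffer of 20 mM Hepes pH 7.5, 10 mM MgCl2, 1 mM EGTA, 0.02% Brij35, 0.02 mg/mL BSA, 0.1 mM […], 2 mM DTT and 1% DMSO, and compounds in DMSO were added. Adding ^33P-ATP (10 μM ATP) started the reaction, which ran 120 min at room temperature. Mixtures were then spotted onto P81 ion-exchange paper, washed thoroughly in 0.75% phosphoric acid, and counted for radioactivity.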

The target in a further assay is JAK2 (Homo sapiens (Human), UniProt O60674). In words: JAK2 radioactive kinase assay. The assay is classed as biochemical. Conditions: ATP 10 μM. In short, it runs like this: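 Radiometric assay in Hepes pH 7.5, MgCl2, EGTA, Brij35, BSA, DTT, 1% DMSO, with 10 μM [33P]ATP, 120 min at room temp; P81 paper capture and counting. […]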
Assay [1] deals with Tyk2-pSTAT4 (IL-12 induced pSTAT4). In words: IL-12 induced pSTAT4 in human PBMC. The assay is classed as cell-based. The following applies: 1.7 ng/mL IL-12, 30 minutes. In short, it runs like this:
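Thawed human PBMC (200,000 cells/well, serum-containing medium) preincubated with compound 1 hr at 37 C, 0.1% DMSO final. Stimulated with 1.7 ng/mL IL-12 (final) for 30 minutes; pSTAT4 and total STAT4 in lysates measured by MSD immunoassay.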

Assay [2] deals with JAK2-pSTAT5 (GM-CSF induced pSTAT5). In words: GM-CSF induced pSTAT5 in human PBMC. The assay is classed as cell-based. The following applies: 5 ng/mL GM-CSF. The gist of the method: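 Thawed human PBMC, 200,000 per well in serum-containing medium, were preincubated 1 hr at 37 C with compound in 0.1% DMSO. GM-CSF at 5 ng/mL final was added for 20 minutes, then pSTAT5 and total STAT5 in lysates were measured by MSD immunoassay.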

Chain of JAK2 (O60674 whole entry): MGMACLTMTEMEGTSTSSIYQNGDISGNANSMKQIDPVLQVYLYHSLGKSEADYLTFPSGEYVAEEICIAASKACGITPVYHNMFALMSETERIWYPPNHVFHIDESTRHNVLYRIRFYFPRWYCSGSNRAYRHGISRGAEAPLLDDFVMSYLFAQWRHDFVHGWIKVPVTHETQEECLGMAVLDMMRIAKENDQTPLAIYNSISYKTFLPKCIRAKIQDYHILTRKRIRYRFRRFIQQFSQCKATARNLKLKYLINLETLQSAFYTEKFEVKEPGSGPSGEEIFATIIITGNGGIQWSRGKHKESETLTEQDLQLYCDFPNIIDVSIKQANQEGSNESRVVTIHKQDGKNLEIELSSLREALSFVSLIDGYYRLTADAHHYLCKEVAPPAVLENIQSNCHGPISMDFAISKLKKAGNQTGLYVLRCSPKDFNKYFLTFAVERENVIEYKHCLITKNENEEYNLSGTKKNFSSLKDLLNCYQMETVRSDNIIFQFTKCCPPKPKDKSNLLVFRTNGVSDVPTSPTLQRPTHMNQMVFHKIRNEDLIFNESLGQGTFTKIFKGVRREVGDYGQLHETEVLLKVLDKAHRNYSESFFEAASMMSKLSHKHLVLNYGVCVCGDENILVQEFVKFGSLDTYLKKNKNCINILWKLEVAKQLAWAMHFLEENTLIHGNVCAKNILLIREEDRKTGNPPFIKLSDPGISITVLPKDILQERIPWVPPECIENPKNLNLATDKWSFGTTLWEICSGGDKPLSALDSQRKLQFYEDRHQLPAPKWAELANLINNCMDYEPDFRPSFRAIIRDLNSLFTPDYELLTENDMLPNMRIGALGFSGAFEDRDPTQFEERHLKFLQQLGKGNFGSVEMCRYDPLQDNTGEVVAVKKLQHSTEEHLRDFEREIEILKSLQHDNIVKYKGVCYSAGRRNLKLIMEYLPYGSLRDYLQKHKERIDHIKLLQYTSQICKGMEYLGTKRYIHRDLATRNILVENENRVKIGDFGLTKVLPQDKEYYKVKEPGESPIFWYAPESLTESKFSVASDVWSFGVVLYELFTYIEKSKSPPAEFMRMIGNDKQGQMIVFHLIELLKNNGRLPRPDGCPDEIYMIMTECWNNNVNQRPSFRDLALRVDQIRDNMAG
Chain of TYK2 (P29597 whole entry): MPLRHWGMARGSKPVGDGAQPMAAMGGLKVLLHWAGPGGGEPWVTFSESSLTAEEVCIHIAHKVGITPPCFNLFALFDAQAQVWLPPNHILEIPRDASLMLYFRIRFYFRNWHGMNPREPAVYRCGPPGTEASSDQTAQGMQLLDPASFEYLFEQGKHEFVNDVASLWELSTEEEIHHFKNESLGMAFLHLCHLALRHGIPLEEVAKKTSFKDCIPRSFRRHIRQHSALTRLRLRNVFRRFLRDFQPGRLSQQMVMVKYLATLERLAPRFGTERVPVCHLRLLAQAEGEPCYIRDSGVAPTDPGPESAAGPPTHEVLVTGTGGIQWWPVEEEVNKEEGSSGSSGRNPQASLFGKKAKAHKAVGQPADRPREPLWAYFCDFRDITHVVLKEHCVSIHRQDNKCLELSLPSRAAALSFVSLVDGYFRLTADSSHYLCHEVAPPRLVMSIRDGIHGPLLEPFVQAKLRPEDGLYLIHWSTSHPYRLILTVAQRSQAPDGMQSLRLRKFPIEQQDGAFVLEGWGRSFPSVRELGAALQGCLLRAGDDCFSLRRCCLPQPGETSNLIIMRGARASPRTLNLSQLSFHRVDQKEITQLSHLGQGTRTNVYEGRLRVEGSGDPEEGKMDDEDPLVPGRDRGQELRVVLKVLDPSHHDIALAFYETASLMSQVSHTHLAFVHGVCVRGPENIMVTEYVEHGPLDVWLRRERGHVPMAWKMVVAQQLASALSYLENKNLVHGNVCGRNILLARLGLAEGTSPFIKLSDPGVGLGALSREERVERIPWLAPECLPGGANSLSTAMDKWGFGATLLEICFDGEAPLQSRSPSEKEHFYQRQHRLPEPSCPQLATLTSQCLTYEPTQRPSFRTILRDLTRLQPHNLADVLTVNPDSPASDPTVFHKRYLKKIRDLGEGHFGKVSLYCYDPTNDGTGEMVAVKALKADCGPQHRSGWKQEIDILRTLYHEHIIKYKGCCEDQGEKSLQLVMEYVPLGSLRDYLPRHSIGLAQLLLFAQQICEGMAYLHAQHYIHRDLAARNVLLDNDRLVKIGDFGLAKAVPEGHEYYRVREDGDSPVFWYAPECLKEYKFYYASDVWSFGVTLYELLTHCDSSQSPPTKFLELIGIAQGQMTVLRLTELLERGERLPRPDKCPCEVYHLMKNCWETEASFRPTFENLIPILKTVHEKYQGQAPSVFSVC

A word on the Ki: it is a measure of affinity in units of concentration, obtained from inhibition or displacement. The term EC50 denotes the concentration at which the effect is half-maximal. A high value points to lower potency in that assay. Regarding `N#Cc1cccc(F)c1-c1cc(-n2ccc(N3CC[C@]4(C3)OC[C@H](O)CO4)n2)c2c(n1)CNC2=O` [I-221, 3-fluoro-2-(4-(3-((5r,8r)-8-hydroxy-6,10-dioxa-2-azaspiro-[4.5]decan-2-yl)-1H-pyrazol-1-yl)-5-oxo-6,7-dihydro-5H-pyrrolo[3,4-b]pyridin-2-yl)benzonitrile], the Ki on TYK2 and at JAK2 was 0.1 to 10 nM in each case. Besides, the EC50 fell in the range of 100 to 2000 nM in assay [1] (Homo sapiens, PBMC, 0.5 h) and 100 to 2000 nM in assay [2] (Homo sapiens, PBMC, 20 min).

For `C[C@]1(O)CN(c2ccn(-c3cc(-c4c(F)cccc4C#N)nc4c3C(=O)NC4)n2)CC[C@H]1O` [I-162, 2-(4-(3-((3S,4R)-3,4-dihydroxy-3-methylpiperidin-1-yl)-1H-pyrazol-1-yl)-5-oxo-6,7-dihydro-5H-pyrrolo[3,4-b]pyridin-2-yl)-3-fluorobenzonitrile], the Ki at TYK2 was in the range of 0.009 to 0.1 nM; at JAK2 it was 0.1 to 10 nM. Moreover, the EC50 in assay [1] (Homo sapiens, PBMC, 0.5 h) lay in the range of 100 to 2000 nM; in assay [2] (Homo sapiens, PBMC, 20 min), 100 to 2000 nM.

With `N#Cc1cccc(F)c1-c1cc(-n2ccc(N3CCC[C@H](CO)C3)n2)c2c(n1)CNC2=O` [I-98, (S)-3-fluoro-2-(4-(3-(3-(hydroxymethyl)piperidin-1-yl)-1H-pyrazol-1-yl)-5-oxo-6,7-dihydro-5H-pyrrolo[3,4-b]pyridin-2-yl)benzonitrile], the Ki is 0.1 to 10 nM on TYK2 and 10 to 100 nM at JAK2. Further, the EC50 lay within 30 to 100 nM in assay [1] (Homo sapiens, PBMC, 0.5 h) and 100 to 2000 nM in assay [2] (Homo sapiens, PBMC, 20 min).

`CC(=O)N[C@H]1CCCN(c2ccn(-c3cc(-c4c(F)cccc4C#N)nc4c3C(=O)NC4)n2)C1` [I-130, (S)-N-(1-(1-(2-(2-cyano-6-fluorophenyl)-5-oxo-6,7-dihydro-5H-pyrrolo[3,4-b]pyridin-4-yl)-1H-pyrazol-3-yl)piperidin-3-yl)acetamide]: the Ki on TYK2 was 0.1 to 10 nM; at JAK2, 10 to 100 nM. Also, the EC50 lay in the range of 100 to 2000 nM in assay [1] (Homo sapiens, PBMC, 0.5 h) and 100 to 2000 nM in assay [2] (Homo sapiens, PBMC, 20 min).

Regarding `CN1CCN([C@@H]2CCCN(c3ccn(-c4cc(-c5c(F)cccc5C#N)nc5c4C(=O)NC5)n3)C2)CC1` [I-156, (R)-3-fluoro-2-(4-(3-(3-(4-methylpiperazin-1-yl)piperidin-1-yl)-1H-pyrazol-1-yl)-5-oxo-6,7-dihydro-5H-pyrrolo[3,4-b]pyridin-2-yl)benzonitrile], the Ki at TYK2 was in the range of 0.1 to 10 nM; at JAK2, 10 to 100 nM. The EC50 in assay [1] (Homo sapiens, PBMC, 0.5 h) lay in the range of 100 to 2000 nM; in assay [2] (Homo sapiens, PBMC, 20 min), 100 to 2000 nM.

`[2H]C1([2H])N(c2ccn(-c3cc(-c4c(F)cccc4C#N)nc4c3C(=O)NC4)n2)C([2H])([2H])C([2H])([2H])C([2H])(O)C1([2H])[2H]` [I-203, 3-fluoro-2-(4-(3-(4-hydroxypiperidin-1-yl-2,2,3,3,4,5,5,6,6-d9)-1H-pyrazol-1-yl)-5-oxo-6,7-dihydro-5H-pyrrolo[3,4-b]pyridin-2-yl)benzonitrile]: the values for the Ki at TYK2 and on JAK2 were 0.1 to 10 nM and 10 to 100 nM, respectively. Also, the EC50 fell in the range of 30 to 100 nM in assay [1] (Homo sapiens, PBMC, 0.5 h) and 100 to 2000 nM in assay [2] (Homo sapiens, PBMC, 20 min).

Regarding `N#Cc1cccc(F)c1-c1cc(-n2ccc(N3CCCC(N)(C(F)(F)F)C3)n2)c2c(n1)CNC2=O` (stereo not shown) [I-84, 2-(4-(3-(3-amino-3-(trifluoromethyl)piperidin-1-yl)-1H-pyrazol-1-yl)-5-oxo-6,7-dihydro-5H-pyrrolo[3,4-b]pyridin-2-yl)-3-fluorobenzonitrile], the Ki was in the range of 0.009 to 0.1 nM at TYK2 and 0.1 to 10 nM at JAK2. For the same compound, the EC50 in assay [1] (Homo sapiens, PBMC, 0.5 h) is 30 to 100 nM; in assay [2] (Homo sapiens, PBMC, 20 min), 100 to 2000 nM.

With `N#Cc1cccc(F)c1-c1cc(-n2ccc(N3C[C@H]4CC[C@@H](C3)O4)n2)c2c(n1)CNC2=O` [I-188, 2-(4-(3-((1R,5S)-8-oxa-3-azabicyclo[3.2.1]octan-3-yl)-1H-pyrazol-1-yl)-5-oxo-6,7-dihydro-5H-pyrrolo[3,4-b]pyridin-2-yl)-3-fluorobenzonitrile], the Ki on TYK2 lay in the range of 0.009 to 0.1 nM; at JAK2, 0.1 to 10 nM. For the same compound, the EC50 in assay [1] (Homo sapiens, PBMC, 0.5 h) was 100 to 2000 nM; in assay [2] (Homo sapiens, PBMC, 20 min) it was 100 to 2000 nM.

As for `CC(=O)N[C@@H]1CCCN(c2ccn(-c3cc(-c4c(F)cccc4C#N)nc4c3C(=O)NC4)n2)C1` [I-129, (R)-N-(1-(1-(2-(2-cyano-6-fluorophenyl)-5-oxo-6,7-dihydro-5H-pyrrolo[3,4-b]pyridin-4-yl)-1H-pyrazol-3-yl)piperidin-3-yl)acetamide], the Ki on TYK2 lay in the range of 0.1 to 10 nM; on JAK2, 10 to 100 nM. For the same compound, the EC50 in assay [1] (Homo sapiens, PBMC, 0.5 h) was 100 to 2000 nM; in assay [2] (Homo sapiens, PBMC, 20 min), more than 2000 nM.

`N#Cc1cccc(F)c1-c1cc(-n2ccc(N3CCNC(=O)CC3)n2)c2c(n1)CNC2=O` [I-141, 3-fluoro-2-(5-oxo-4-(3-(5-oxo-1,4-diazepan-1-yl)-1H-pyrazol-1-yl)-6,7-dihydro-5H-pyrrolo[3,4-b]pyridin-2-yl)benzonitrile]: the Ki on TYK2 is 0.009 to 0.1 nM; at JAK2, 0.1 to 10 nM. In addition, the EC50 in assay [1] (Homo sapiens, PBMC, 0.5 h) lay in the range of 100 to 2000 nM; in assay [2] (Homo sapiens, PBMC, 20 min), 100 to 2000 nM.

On to `N#Cc1cccc(F)c1-c1cc(-n2ccc(N3CC[C@@H](O)C3)n2)c2c(n1)CNC2=O` [I-78, (R)-3-fluoro-2-(4-(3-(3-hydroxypyrrolidin-1-yl)-1H-pyrazol-1-yl)-5-oxo-6,7-dihydro-5H-pyrrolo[3,4-b]pyridin-2-yl)benzonitrile], for which the Ki on TYK2 fell in the range of 0.1 to 10 nM; on JAK2, 10 to 100 nM. Besides, the EC50 in assay [1] (Homo sapiens, PBMC, 0.5 h) was 30 to 100 nM; in assay [2] (Homo sapiens, PBMC, 20 min), 100 to 2000 nM.

Turning to `N#Cc1cccc(F)c1-c1cc(-n2ccc(N3CCCC(C(=O)N4CCCC4)C3)n2)c2c(n1)CNC2=O` (stereo not shown) [I-152, 3-fluoro-2-(5-oxo-4-(3-(3-(pyrrolidine-1-carbonyl)piperidin-1-yl)-1H-pyrazol-1-yl)-6,7-dihydro-5H-pyrrolo[3,4-b]pyridin-2-yl)benzonitrile], the Ki at TYK2 and on JAK2 was 0.1 to 10 nM each time. Besides, the EC50 in assay [1] (Homo sapiens, PBMC, 0.5 h) was 100 to 2000 nM; in assay [2] (Homo sapiens, PBMC, 20 min), more than 2000 nM.

As for `CN1CCN(C2CCCN(c3ccn(-c4cc(-c5c(F)cccc5C#N)nc5c4C(=O)NC5)n3)C2)CC1` (stereo not shown) [I-147, 3-fluoro-2-(4-(3-(3-(4-methylpiperazin-1-yl)piperidin-1-yl)-1H-pyrazol-1-yl)-5-oxo-6,7-dihydro-5H-pyrrolo[3,4-b]pyridin-2-yl)benzonitrile], the Ki at TYK2 was in the range of 0.1 to 10 nM; on JAK2, 10 to 100 nM. Moreover, the EC50 lay in the range of 100 to 2000 nM in assay [1] (Homo sapiens, PBMC, 0.5 h) and 100 to 2000 nM in assay [2] (Homo sapiens, PBMC, 20 min).

`N#Cc1cccc(F)c1-c1cc(-n2ccc(N3CCC(O)(C(=O)N4CCCC4)C3)n2)c2c(n1)CNC2=O` (stereo not shown) [I-191, 3-fluoro-2-(4-(3-(3-hydroxy-3-(pyrrolidine-1-carbonyl)-pyrrolidin-1-yl)-1H-pyrazol-1-yl)-5-oxo-6,7-dihydro-5H-pyrrolo[3,4-b]pyridin-2-yl)benzonitrile]: the inhibitory constant (Ki) on TYK2 and on JAK2 was 0.1 to 10 nM throughout. In addition, the EC50 lay in the range of 100 to 2000 nM in assay [1] (Homo sapiens, PBMC, 0.5 h) and 100 to 2000 nM in assay [2] (Homo sapiens, PBMC, 20 min).

As for `N#Cc1cccc(F)c1-c1cc(-n2ccc(N3CCOC[C@@H](O)C3)n2)c2c(n1)CNC2=O` [I-131, (S)-3-fluoro-2-(4-(3-(6-hydroxy-1,4-oxazepan-4-yl)-1H-pyrazol-1-yl)-5-oxo-6,7-dihydro-5H-pyrrolo[3,4-b]pyridin-2-yl)benzonitrile], the results for the Ki at TYK2 and at JAK2 were 0.1 to 10 nM and 10 to 100 nM, respectively. The EC50 in assay [1] (Homo sapiens, PBMC, 0.5 h) was 30 to 100 nM; in assay [2] (Homo sapiens, PBMC, 20 min), more than 2000 nM.

Consider `N#Cc1cccc(F)c1-c1cc(-n2ccc(N3CC[C@@]4(CCNC4=O)C3)n2)c2c(n1)CNC2=O` [I-166, (S)-3-fluoro-2-(5-oxo-4-(3-(6-oxo-2,7-diazaspiro[4.4]nonan-2-yl)-1H-pyrazol-1-yl)-6,7-dihydro-5H-pyrrolo[3,4-b]pyridin-2-yl)benzonitrile], for which the Ki at TYK2 lay within 0.009 to 0.1 nM; at JAK2 it was 0.1 to 10 nM. Besides, the EC50 fell in the range of 100 to 2000 nM in assay [1] (Homo sapiens, PBMC, 0.5 h) and 100 to 2000 nM in assay [2] (Homo sapiens, PBMC, 20 min).

Consider `N#Cc1cccc(F)c1-c1cc(-c2ccn([C@@H]3COC[C@@H]3O)n2)c2c(n1)CNC2=O` [I-234, 3-fluoro-2-(4-(1-((3R,4R)-4-hydroxytetrahydrofuran-3-yl)-1H-pyrazol-3-yl)-5-oxo-6,7-dihydro-5H-pyrrolo[3,4-b]pyridin-2-yl)benzonitrile], for which the Ki on TYK2 was 10 to 100 nM; on JAK2, 100 to 1000 nM. Besides, the EC50 was 100 to 2000 nM in assay [1] (Homo sapiens, PBMC, 0.5 h) and more than 2000 nM in assay [2] (Homo sapiens, PBMC, 20 min).

For the compound `N#Cc1cccc(F)c1-c1cc(-n2ccc(N3CCC(N4CCOCC4)CC3)n2)c2c(n1)CNC2=O` [I-59, 3-fluoro-2-(4-(3-(4-morpholinopiperidin-1-yl)-1H-pyrazol-1-yl)-5-oxo-6,7-dihydro-5H-pyrrolo[3,4-b]pyridin-2-yl)benzonitrile], the Ki on TYK2 and at JAK2 was 0.1 to 10 nM each time. Besides, the EC50 in assay [1] and in assay [2] (20 minutes) was 100 to 2000 nM in each case.

In the case of `CC(C)c1ccn(-c2cc(-c3c(F)cccc3C#N)nc3c2C(=O)NC3)n1` [I-151, 3-fluoro-2-(4-(3-isopropyl-1H-pyrazol-1-yl)-5-oxo-6,7-dihydro-5H-pyrrolo[3,4-b]pyridin-2-yl)benzonitrile], the Ki on TYK2 was in the range of 0.1 to 10 nM; on JAK2, 100 to 1000 nM. Besides, the EC50 in assay [1] (Homo sapiens, PBMC, 0.5 h) was 100 to 2000 nM; in assay [2] (Homo sapiens, PBMC, 20 min), more than 2000 nM.
